Read-outs that look alike come from different tables or passages of the source. Each block holds one compound with its values, some of them ahead of it. Numbered stars: 1 amine (or outer) side, 2 acyl side, 3 side chain; on linkers, the order of the positions; unused ones are H or OH. Square brackets hold non-standard residues; d marks the D form. Side chains are listed from the residue outwards. Peptide text beside a SMILES is read from it. * marks the point of attachment. Dap(Nα-HOOC(CH2)16CO)OH = O=C(O)CCCCCCCCCCCCCCCCC(=O)N[C@@H](CN*)C(=O)O; Phe(3-CF3) = N[C@@H](Cc1cccc(C(F)(F)F)c1)C(=O)O; Bip = N[C@@H](Cc1ccc(-c2ccccc2)cc1)C(=O)O; C18 diacid = O=C(O)CCCCCCCCCCCCCCCCC(=O)*; Hydrocinnamoyl(4-I) = O=C(CCc1ccc(I)cc1)*; X2 = O=C(CCc1ccc(I)cc1)N[C@@H](CN*)C(=O)O; αMePhe(2-F) = C[C@](N)(Cc1ccccc1F)C(=O)O; Phe(2-Cl) = N[C@@H](Cc1ccccc1Cl)C(=O)O; γGlu = O=C(O)[C@H](CCC(=O)[*:2])N[*:1]; Phe(2-F) = N[C@@H](Cc1ccccc1F)C(=O)O; hPhe = N[C@@H](CCc1ccccc1)C(=O)O; αMeP = C[C@@]1(C(=O)O)CCCN1; AEEA = NCCOCCOCC(=O)O; Aib = CC(C)(N)C(=O)O
Target: T1, hGLP1 receptor (Homo sapiens, UniProt P43220)
T1 construct: expressed in transfected cells; host or cells: HEK (human embryonic kidney) cells co-expressing hGLP1 receptor and CRE-Luciferase
T1 sequence (P43220 24-463): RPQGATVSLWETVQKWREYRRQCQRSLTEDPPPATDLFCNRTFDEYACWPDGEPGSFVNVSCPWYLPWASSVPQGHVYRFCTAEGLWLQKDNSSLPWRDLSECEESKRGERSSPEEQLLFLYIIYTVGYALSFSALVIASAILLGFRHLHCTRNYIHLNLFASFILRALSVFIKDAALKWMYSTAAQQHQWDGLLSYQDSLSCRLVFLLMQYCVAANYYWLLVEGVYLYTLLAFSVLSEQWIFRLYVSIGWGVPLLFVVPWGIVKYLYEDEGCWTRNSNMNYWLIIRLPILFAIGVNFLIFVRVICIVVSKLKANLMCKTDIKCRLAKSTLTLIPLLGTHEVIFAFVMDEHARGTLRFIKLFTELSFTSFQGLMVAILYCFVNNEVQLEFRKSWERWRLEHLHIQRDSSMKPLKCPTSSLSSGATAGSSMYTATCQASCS
Experiment: cAMP HTRF agonist assay in HEK cells co-expressing hGLP1 receptor and CRE-Luciferase
Format: cell-based
Method: Human embryonic kidney cells (HEK) co-expressing the hGLP1 receptor and CRE-Luciferase construct were used to determine agonist potency in this assay. The cells were thawed briefly at 37° C., transferred to a sterile tube and re-suspended in complete media at 37° C. Cells were centrifuged at 1000 rpm for 5 minutes and cells collected; cells were re-suspended in assay buffer consisting of DPBS (GIBCO) with 500 μM of the phosphodiesterase inhibitor IBMX. […] The optimal cell density was determined to be 1000 cells/well; cells were added to wells in 384-well plates containing appropriate pre-prepared dilutions of compounds (test peptides or reference compound exendin-4), sealed and incubated with CO2 for 30 min. Test peptide solutions were diluted from 10 mM stock solutions; for most peptides an initial run was performed in duplicate from a maximal concentration of 1.0 μM, with 11 concentrations tested for each peptide using serial 1:3 dilution from this maximal concentration. […] The agonist assay was a homogeneous time-resolved fluorescence (HTRF) assay (Cisbio).
Following incubation of the cells for 30 minutes with test or reference peptides, 5 μL of the cAMP acceptor cAMP-d2, prepared previously as a working solution from frozen stock (1:20 dilution), was added to each well of the assay plate, along with 5 μL of anti-cAMP antibody-cryptate working solution (diluted 1:20 from frozen stock). The wells were incubated for 1 hour at room temperature, and fluorescence was then read at 665 and 615 nm with an Envision reader with TRF laser. Data were saved and analyzed using Prism software (GraphPad). Concentration-response analysis was performed using 4-parameter logistic fits of the resulting data, and EC50 values obtained for each test and reference compound.

[1] = cAMP EC50, nM (0.1% albumin), Table 6, 0.1% albumin
[2] = cAMP EC50, nM (0.1% albumin), Table 1, 0.1% albumin
[3] = cAMP EC50, nM (0.1% albumin), Table 3, 0.1% albumin

EC50 [1]: 1.3 nM
SMILES: C[C@@H](O)[C@H](NC(=O)CNC(=O)[C@H](CCC(=O)O)NC(=O)[C@]1(C)CCCN1C(=O)[C@@H](N)Cc1c[nH]cn1)C(=O)N[C@@](C)(Cc1ccccc1F)C(=O)N[C@H](C(=O)N[C@@H](CO)C(=O)N[C@@H](CC(=O)O)C(=O)N[C@@H](Cc1ccc(-c2ccccc2)cc1)C(=O)N[C@@H](Cc1ccc(-c2ccccc2)cc1)C(=O)NCCOCCOCC(=O)NCCOCCOCC(=O)NCCOCCOCC(=O)NC[C@H](NC(=O)CCc1ccc(I)cc1)C(=O)O)[C@@H](C)O [4-59, H2N-His-α-MePro -Glu-Gly-Thr-α-MePhe(2-F)-Thr-Ser-Asp-Bip-Bip-C(O)NH-RY15] (H-H[αMeP]EGT[αMePhe(2-F)]TSD[Bip][Bip][AEEA][AEEA][AEEA]-X2)

EC50 [1]: 12 nM
SMILES: C[C@@H](O)[C@H](NC(=O)CNC(=O)[C@H](CCC(=O)O)NC(=O)C(C)(C)NC(=O)[C@@H](N)Cc1c[nH]cn1)C(=O)N[C@@](C)(Cc1ccccc1F)C(=O)N[C@H](C(=O)N[C@@H](CO)C(=O)N[C@@H](CC(=O)O)C(=O)N[C@@H](Cc1ccc(-c2ccccc2)cc1)C(=O)N[C@@H](Cc1ccc(-c2ccccc2)cc1)C(=O)N[C@@H](CCCCNC(=O)COCCOCCNC(=O)COCCOCCNC(=O)COCCOCCNC(=O)CC[C@H](NC(=O)CCCCCCCCCCCCCCCCC(=O)O)C(=O)O)C(N)=O)[C@@H](C)O [4-50, H2N-His-Aib-Glu-Gly-Thr-α-MePhe(2-F)-Thr-Ser-Asp-Bip-Bip-C(O)NH-RY12] (H-H[Aib]EGT[αMePhe(2-F)]TSD[Bip][Bip]K([AEEA-AEEA-AEEA-γGlu-C18 diacid])-NH2)

EC50 (Table 5, 0% albumin, read-out: cAMP EC50, nM (0% albumin)): 272 nM | fold lower potency than the parent peptide (1-4) (relative to parent 1-4): about 30 fold
SMILES: C[C@@H](O)[C@H](NC(=O)CNC(=O)[C@H](CCC(=O)O)NC(=O)C(C)(C)NC(=O)[C@@H](N)Cc1c[nH]cn1)C(=O)N[C@@](C)(Cc1ccccc1F)C(=O)N[C@H](C(=O)N[C@@H](CO)C(=O)N[C@@H](CC(=O)O)C(=O)N[C@@H](Cc1ccc(-c2ccccc2)cc1)C(=O)N[C@@H](CCc1ccccc1)C(=O)O)[C@@H](C)O [4-1, H2N-His-Aib-Glu-Gly-Thr-α-MePhe(2-F)-Thr-Ser-Asp-Bip-Hph-C(O)OH] (H-H[Aib]EGT[αMePhe(2-F)]TSD[Bip][hPhe]-OH)

EC50 [1]: 2.2 nM
SMILES: C[C@@H](O)[C@H](NC(=O)CNC(=O)[C@H](CCC(=O)O)NC(=O)[C@]1(C)CCCN1C(=O)[C@@H](N)Cc1c[nH]cn1)C(=O)N[C@@](C)(Cc1ccccc1F)C(=O)N[C@H](C(=O)N[C@@H](CO)C(=O)N[C@@H](CC(=O)O)C(=O)N[C@@H](Cc1ccc(-c2ccccc2)cc1)C(=O)N[C@@H](Cc1ccc(-c2ccccc2)cc1)C(=O)NCCOCCOCC(=O)NCCOCCOCC(=O)NC[C@H](NC(=O)CCCCCCCCCCCCCCCCC(=O)O)C(=O)O)[C@@H](C)O [4-60, H2N-His-α-MePro-Glu-Gly-Thr-α-MePhe(2-F)-Thr-Ser-Asp-Bip-Bip-C(O)NH-RY16] (H-H[αMeP]EGT[αMePhe(2-F)]TSD[Bip][Bip][AEEA][AEEA]-{Dap(Nα-HOOC(CH2)16CO)OH})

EC50 [1]: 5.1 nM
SMILES: C[C@@H](O)[C@H](NC(=O)CNC(=O)[C@H](CCC(=O)O)NC(=O)[C@]1(C)CCCN1C(=O)[C@@H](N)Cc1c[nH]cn1)C(=O)N[C@@](C)(Cc1ccccc1F)C(=O)N[C@H](C(=O)N[C@@H](CO)C(=O)N[C@@H](CC(=O)O)C(=O)N[C@@H](Cc1ccc(-c2ccccc2)cc1)C(=O)N[C@@H](Cc1ccc(-c2ccccc2)cc1)C(=O)N[C@@H](CCCCNC(=O)CC[C@H](NC(=O)CCCCCCCCCCCCCCCCC(=O)O)C(=O)O)C(N)=O)[C@@H](C)O [4-69, H2N-His-α-MePro-Glu-Gly-Thr-α-MePhe(2-F)-Thr-Ser-Asp-Bip-Bip-C(O)NH-RY25] (H-H[αMeP]EGT[αMePhe(2-F)]TSD[Bip][Bip]K([γGlu-C18 diacid])-NH2)

EC50 [1]: 2.9 nM
SMILES: C[C@@H](O)[C@H](NC(=O)CNC(=O)[C@H](CCC(=O)O)NC(=O)[C@]1(C)CCCN1C(=O)[C@@H](N)Cc1c[nH]cn1)C(=O)N[C@@](C)(Cc1ccccc1F)C(=O)N[C@H](C(=O)N[C@@H](CO)C(=O)N[C@@H](CC(=O)O)C(=O)N[C@@H](Cc1ccc(-c2ccccc2)cc1)C(=O)N[C@@H](Cc1ccc(-c2ccccc2)cc1)C(=O)NCCOCCOCC(=O)N[C@@H](CCCCNC(=O)CCc1ccc(I)cc1)C(N)=O)[C@@H](C)O [4-66, H2N-His-α-MePro-Glu-Gly-Thr-α-MePhe(2-F)-Thr-Ser-Asp-Bip-Bip-C(O)NH-RY22] (H-H[αMeP]EGT[αMePhe(2-F)]TSD[Bip][Bip][AEEA]K(Hydrocinnamoyl(4-I))-NH2)

EC50 [1]: 2.4 nM
SMILES: C[C@@H](O)[C@H](NC(=O)CNC(=O)[C@H](CCC(=O)O)NC(=O)[C@]1(C)CCCN1C(=O)[C@@H](N)Cc1c[nH]cn1)C(=O)N[C@@](C)(Cc1ccccc1F)C(=O)N[C@H](C(=O)N[C@@H](CO)C(=O)N[C@@H](CC(=O)O)C(=O)N[C@@H](Cc1ccc(-c2ccccc2)cc1)C(=O)N[C@@H](Cc1ccc(-c2ccccc2)cc1)C(=O)NCC(=O)NCC(=O)NCC(=O)N[C@@H](CCCCNC(=O)CCc1ccc(I)cc1)C(N)=O)[C@@H](C)O [4-67, H2N-His-α-MePro-Glu-Gly-Thr-α-MePhe(2-F)-Thr-Ser-Asp-Bip-Bip-C(O)NH-RY23] (H-H[αMeP]EGT[αMePhe(2-F)]TSD[Bip][Bip]GGGK(Hydrocinnamoyl(4-I))-NH2)

Second part, the compound before the results:

SMILES: C[C@H](NC(=O)[C@H](CC(=O)O)NC(=O)[C@H](CO)NC(=O)[C@@H](NC(=O)[C@H](Cc1ccccc1F)NC(=O)[C@@H](NC(=O)CNC(=O)[C@H](CCC(=O)O)NC(=O)C(C)(C)NC(=O)[C@@H](N)Cc1c[nH]cn1)[C@@H](C)O)[C@@H](C)O)C(=O)N[C@@H](Cc1ccc(-c2ccccc2)cc1)C(N)=O [3-28, H2N-His-Aib-Glu-Gly-Thr-Phe(2-F)-Thr-Ser-Asp-Ala-Bip-C(O)NH2] (H-H[Aib]EGT[Phe(2-F)]TSDA[Bip]-NH2)
EC50 (cAMP EC50, nM (0.1% albumin), Table 2, 0.1% albumin): > 1000 nM

SMILES: CC(C)C[C@H](NC(=O)[C@@H](N)Cc1c[nH]cn1)C(=O)NC(C)(C)C(=O)N[C@@H](CC(=O)O)C(=O)NCC(=O)N[C@H](C(=O)N[C@@](C)(Cc1ccccc1F)C(=O)N[C@H](C(=O)N[C@@H](CO)C(=O)N[C@@H](CC(=O)O)C(=O)N[C@@H](Cc1ccc(-c2ccccc2)cc1)C(=O)N[C@@H](Cc1ccc(-c2ccccc2)cc1)C(N)=O)[C@@H](C)O)[C@@H](C)O [2-9, H2N-His-Leu-Aib-Asp-Gly-Thr-α-MePhe(2-F)-Thr-Ser-Asp-Bip-Bip-C(O)NH2] (H-HL[Aib]DGT[αMePhe(2-F)]TSD[Bip][Bip]-NH2)
EC50 (cAMP EC50, nM (0.1% albumin), Table 4, 0.1% albumin): 6.4 nM

SMILES: C[C@@H](O)[C@H](NC(=O)CNC(=O)[C@H](CCC(=O)O)NC(=O)C(C)(C)NC(=O)[C@@H](N)Cc1c[nH]cn1)C(=O)N[C@@H](Cc1ccccc1Cl)C(=O)N[C@H](C(=O)N[C@@H](CO)C(=O)N[C@@H](CC(=O)O)C(=O)N[C@@H](Cc1ccc(-c2ccccc2)cc1)C(=O)N[C@@H](Cc1ccc(-c2ccccc2)cc1)C(N)=O)[C@@H](C)O [3-2, H2N-His-Aib-Glu-Gly-Thr-Phe(2-Cl)-Thr-Ser-Asp-Bip-Bip-C(O)NH2] (H-H[Aib]EGT[Phe(2-Cl)]TSD[Bip][Bip]-NH2)
EC50 [2]: 4.5 nM

SMILES: C[C@@H](O)[C@H](NC(=O)CNC(=O)[C@H](CCC(=O)O)NC(=O)C(C)(C)NC(=O)[C@@H](N)Cc1c[nH]cn1)C(=O)N[C@@H](Cc1cccc(C(F)(F)F)c1)C(=O)N[C@H](C(=O)N[C@@H](CO)C(=O)N[C@@H](CC(=O)O)C(=O)N[C@@H](Cc1ccc(-c2ccccc2)cc1)C(=O)N[C@@H](Cc1ccc(-c2ccccc2)cc1)C(N)=O)[C@@H](C)O [3-7, H2N-His-Aib-Glu-Gly-Thr-Phe(3-CF3)-Thr-Ser-Asp-Bip-Bip-C(O)NH2] (H-H[Aib]EGT[Phe(3-CF3)]TSD[Bip][Bip]-NH2)
EC50 [2]: 97.5 nM

SMILES: C[C@@H](O)[C@H](NC(=O)CNC(=O)C(C)(C)NC(=O)C(C)(C)NC(=O)[C@@H](N)Cc1c[nH]cn1)C(=O)N[C@@](C)(Cc1ccccc1F)C(=O)N[C@H](C(=O)N[C@@H](CO)C(=O)N[C@@H](CC(=O)O)C(=O)N[C@@H](Cc1ccc(-c2ccccc2)cc1)C(=O)N[C@@H](Cc1ccc(-c2ccccc2)cc1)C(N)=O)[C@@H](C)O [3-31, H2N-His-Aib-Aib-Gly-Thr-αMePhe(2-F)-Thr-Ser-Asp-Bip-Bip-C(O)NH2] (H-H[Aib][Aib]GT[αMePhe(2-F)]TSD[Bip][Bip]-NH2)
EC50 [3]: 4.9 nM

SMILES: C[C@@H](O)[C@H](NC(=O)CNC(=O)[C@H](CCC(=O)O)NC(=O)C(C)(C)NC(=O)[C@@H](N)Cc1c[nH]cn1)C(=O)N[C@@](C)(Cc1ccccc1F)C(=O)N[C@H](C(=O)N[C@@H](CO)C(=O)NC(C)(C)C(=O)N[C@@H](Cc1ccc(-c2ccccc2)cc1)C(=O)N[C@@H](Cc1ccc(-c2ccccc2)cc1)C(N)=O)[C@@H](C)O [3-37, H2N-His-Aib-Glu-Gly-Thr-αMePhe(2-F)-Thr-Ser-Aib-Bip-Bip-C(O)NH2] (H-H[Aib]EGT[αMePhe(2-F)]TS[Aib][Bip][Bip]-NH2)
EC50 [3]: 91.6 nM

From patent US20230015478A1, “GLP-1 RECEPTOR AGONISTS HAVING IMPROVED PHARMACOLOGICAL AND DRUG DELIVERY PROPERTIES” (priority 2021, published 2023)
